This assay relates to Episkin™ reconstructed epidermides. Put plainly: Diffusion of radioactively labelled caffeine through Episkin reconstructed epidermides (barrier function). The assay is classed as cell-based. The conditions noted are these: 200 μg/ml; for Reduction of the passage of caffeine after 2 hours of application (in %): relative to the control. Here is the method:
Hydroxyapatite in the form of particles sold under the name Hydroxysomes™ by LSC and their combination with a calcium D-pantetheine sulfonate sold by SOGO Pharmaceutical were tested on an in vitro model to evaluate the overall effect of this combination on the barrier function of the skin.
This test consists in applying the test active agents to Episkin™ reconstructed epidermides differentiated on D13, and then, after incubation for 5 days, in applying radioactively labelled caffeine and monitoring the diffusion of the labelled caffeine through the reconstructed epidermides.
Vitamin C, which is known to improve the epidermal barrier function via stimulation of the synthesis of the epidermal lipids, is used as a reference molecule for this test (positive control). Water is used as a negative control.
Differentiated (D13) Episkin™ epidermides were placed in 12-well plates containing 2 ml of differentiation medium and were precultured at 37° C. and 5% CO2 for 24 hours. After incubation, the epidermides were treated topically with 100 μl of each concentration of test product or of the reference product (vitamin C).
Control epidermides were treated topically with 100 μl of water.
The epidermides were then incubated at 37° C. and 5% CO2 for 5 days, with changing of the medium and new application of the active agents after 2 days.
The treatments were performed in quintuplicate (n=5).
Four epidermides were used for the passage of caffeine and one “control” epidermis was kept to perform histology at the end of the experiment.
After treatment with the test active agents and the reference product (vitamin C), the epidermides were washed and the caffeine was applied to the surface of each epidermis at a rate of 100 μl containing 2 μCi/ml (0.04 mM) of radioactive caffeine and 0.35 mM of cold caffeine, which corresponds to about 500 000 cpm total.
The % activity of caffeine after 2 hours of application was measured.

In the case of `O=C1O[C@H]([C@@H](O)CO)C(O)=C1O` [Vitamin C], the “Reduction of the passage of caffeine after 2 hours of application (in %)” value is −41%. In addition, under “topical 5 days, caffeine after 2 hours of application, read-out: % activity relative to the control”, the activity at 200 µg/mL was found to be 59%. Also, the “Reduction of the passage of caffeine after 2 hours of application (in %)” value (listed as vitamin C) is reported as −41%.

For the origin of these results see patent publication US20080160088A1, “COMPOSITION CONTAINING HYDROXYAPATITE AND A CALCIUM SALT” (L'OREAL, priority 2006, published 2008).
